Laboratory results as given in PubChem BioAssay (NCI).
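Protocol summary: plate cells (96-well), add compound at 5 concentrations, incubate 48 h, interpolate endpoints linearly. The concentration for full growth arrest is given as TGI.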

Assays:
Assay in all cases: inhibition of tumour cell growth, NCI panel, 48 h
K-562 leukemia = system: K-562 leukemia
SNB-19 CNS = system: SNB-19 CNS
SF-539 CNS = system: SF-539 CNS
HOP-92 NSCLC = system: HOP-92 NSCLC
MDA-N = system: MDA-N
U251 CNS = system: U251 CNS
SK-OV-3 ovarian = system: SK-OV-3 ovarian
HS 578T breast = system: HS 578T breast
UACC-257 melanoma = system: UACC-257 melanoma
SK-MEL-28 melanoma = system: SK-MEL-28 melanoma
SW-620 colon = system: SW-620 colon
TK-10 renal = system: TK-10 renal
KM12 colon = system: KM12 colon
A498 renal = system: A498 renal
LOX IMVI melanoma = system: LOX IMVI melanoma
T-47D breast = system: T-47D breast

Structure (SMILES) | TGI (K-562 leukemia) [µM] | TGI (SNB-19 CNS) [µM] | TGI (SF-539 CNS) [µM] | TGI (HOP-92 NSCLC) [µM] | TGI (MDA-N) [µM] | TGI (U251 CNS) [µM] | TGI (SK-OV-3 ovarian) [µM] | TGI (HS 578T breast) [µM] | TGI (UACC-257 melanoma) [µM] | TGI (SK-MEL-28 melanoma) [µM] | TGI (SW-620 colon) [µM] | TGI (TK-10 renal) [µM] | TGI (KM12 colon) [µM] | TGI (A498 renal) [µM] | TGI (LOX IMVI melanoma) [µM] | TGI (T-47D breast) [µM]
CC[C@H]1C=CCC[C@@]2(C[C@@H]3CC[C@H]4[C@H](C(=O)OCCCCCCCCCCCCCCCC(=O)N(CCCN)C[C@@H](O)CCN)[C@]5(CCC[C@@H](C)O5)NC(=[N+]34)N2)O1 | 1.05 | 2.93 | 3.32 | 1.45 | 1.51 | 1.44 | 3.28 | 4.26 | 2.02 | 3.98 | 3.51 | 2.98 | 1.82 | 3.09 | 1.38 | 
C/C(=N/NC(N)=S)C(CN(C)C)C(C1=C(O)c2ccccc2OC1)c1ccccc1 (centres undefined) | > 100 | > 100 | > 100 |  |  | > 100 | > 100 |  | > 100 | > 100 | > 100 | > 100 | > 100 | > 100 | > 100 | 
CN1N=C2c3ccccc3CC[C@H]2C1c1cccc(O)c1 (some centres undefined) | > 100 | > 100 | > 100 | > 100 |  | > 100 | > 100 |  | > 100 | > 100 | > 100 | > 100 | > 100 | > 100 | > 100 | 
NC(=O)OCc1c(-c2ccccc2)nn(-c2ccccc2)c1COC(N)=O |  | > 100 | > 100 | > 100 | > 100 | > 100 |  |  | > 100 | > 100 | > 100 | > 100 | > 100 |  |  | > 100
C#Cc1cc(CN(CC(=O)OC(C)(C)C)CC(=O)OC(C)(C)C)nc(CN(CC(=O)OC(C)(C)C)CC(=O)OC(C)(C)C)c1 | 26.6 | 15.1 | 32.9 |  |  | 27.8 | 51 |  | 9.15 | 93.8 | 21.1 | > 100 | 23 | 76.1 | 6.03 | 
Cc1cc(=O)[nH]c(NNC(C#N)c2ccco2)n1 (centres undefined) | > 100 |  | > 100 | > 100 |  | > 100 | > 100 |  | > 100 | > 100 | > 100 | > 100 | > 100 |  | > 100 | 
O=C(CC(=O)N1N=C(N(c2ccccc2)c2ccccc2)CC1c1ccccc1)Nc1ccccc1 (centres undefined) | > 100 | > 100 | > 100 | > 100 |  | > 100 | > 100 | > 100 | > 100 | > 100 | > 100 | > 100 | > 100 |  |  | > 100
CC(C)(C)C(=O)/C=C/c1cccc(Oc2ccccc2)c1 | 30.1 | 30 | 40.2 |  |  | 23.5 | > 100 |  | 28.4 | 34.1 |  |  | 25.6 | 37.1 |  | 
COc1ccc(C2S/C(=C\c3ccccc3)C(=O)N2NC(=O)Cc2ccccc2)cc1 (centres undefined) | > 100 |  | > 100 | > 100 |  | > 100 | > 100 |  | > 100 | > 100 | > 100 | > 100 | > 100 | > 100 | > 100 | 
COc1ccc(-n2sc3ncc([N+](=O)[O-])cc3c2=O)cc1 |  | > 100 | > 100 |  | > 100 | > 100 | > 100 | > 100 | > 100 | > 100 | > 100 | > 100 | > 100 |  | > 100 | > 100
O=C(N/N=C(\c1nc2ccc(Cl)cc2[nH]c1=O)C(O)c1ccccc1Cl)c1ccncc1 (centres undefined) | > 100 | > 100 | > 100 | > 100 |  |  | > 100 |  | > 100 | > 100 | > 100 | > 100 | > 100 | > 100 | > 100 | 
COCN1C(=O)[C@@H]2CCCN2C(=O)c2ccc([N+](=O)[O-])cc21 | > 100 | > 100 | > 100 | > 100 |  | > 100 | > 100 | > 100 | > 100 | > 100 | > 100 | > 100 | > 100 | > 100 | > 100 | > 100
O=C(/C=C/c1ccc2c(c1)OCO2)CC(=O)/C=C/c1ccc2c(c1)OCO2 | > 100 | > 100 | > 100 |  | > 100 | > 100 | > 100 | > 100 |  |  | > 100 | > 100 | 10.8 |  | > 100 | > 100
Cn1nc2ccccc2cc1=O | > 100 | > 100 | > 100 | > 100 |  | > 100 | > 100 |  | > 100 | > 100 | > 100 | > 100 | > 100 | > 100 | > 100 | 
CC1(O)Oc2ccc3ccccc3c2C=C1C(N)=O (centres undefined) | > 100 | > 100 | > 100 | > 100 |  | > 100 | > 100 | > 100 | > 100 | > 100 | > 100 | > 100 | > 100 | > 100 | > 100 | > 100
CC(C)C1COC(c2ccc3ccccc3c2-c2c(O[Si](C)(C)C(C)(C)C)ccc3ccccc23)=N1 (centres undefined) | 31.9 | 29.2 | 32.4 | 26.6 |  |  | 34.5 |  | 34.1 | 33.8 | 35.1 | 33 | 35.7 | 36.2 | 45.5 | 
O=C1C=C2CC[C@H]3[C@@H]4CC[C@H](OC(=O)c5cccc6cc7ccccc7nc56)[C@H]4CC[C@@H]3[C@H]2CC1 | > 100 | > 100 | > 100 |  | > 100 | > 100 | > 100 | > 100 | > 100 | > 100 | > 100 | > 100 | > 100 | > 100 | 29.7 | 
